We go through twelve compounds from patent publication US5753648A, “Tricyclic benzazepine vasopressin antagonists” (American Cyanamid Company, priority 1996, dated 1998).

In one assay the target is Rat Hepatic V1 Receptors (Rattus norvegicus, UniProt P30560). The experiment in a line: Binding Assay to Rat Hepatic V1 Receptors. The procedure: Binding Assay to Rat Hepatic V1 Receptors
Rat liver plasma membranes expressing the vasopressin V1 receptor subtypes are isolated by sucrose density gradient according to the method described by Lesko et al, (1973). These membranes are quickly suspended in 50.0 mM Tris.HCl buffer, pH 7.4, containing 0.2% bovine serum albumin (BSA) and 0.1 mM phenylmethylsulfonylfluoride (PMSF) and kept frozen at -70° C. until used in subsequent binding experiments. For binding experiments, the following is added to the wells of a ninety-six well format microtiter plate: 100 μl of 100.0 mM Tris.HCl buffer containing 10.0 mM MgCl2, 0.2% heat inactivated BSA and a mixture of protease inhibitors: leupeptin, 1.0 mg %; aprotinin, 1.0 mg %; 1,10-phenanthroline,2.0 mg %; trypsin inhibitor, 10.0 mg % and 0.1 mM PMSF, 20.0 μl of [phenylalanyl-3,4,5,-^3 H] vaso-pressin (S.A. 45.1 Ci/mmole) at 0.8 nM, and the reaction initiated by the addition of 80 μl of tissue membranes containing 20 μg of tissue protein. The plates are kept undisturbed on the bench top at room temperature for 120 min. to reach equilibrium. Non-specific samples are assayed in the presence of 0.1 μm of the unlabeled antagonist phenylalanylvasopressin, added in 20.0 μl volume. For test compounds, these are solubilized in 50% dimethylsulfoxide (DMSO) and added in 20.0 μl volume to a final incubation volume of 200 μl. Upon completion of binding, the content of each well is filtered off, using a Brandel® cell Harvester (Gaithersburg, Md.). The radioactivity trapped on the filter disk by the ligand-receptor complex is assessed by liquid scintillation counting in a Packard LS Counter, with an efficiency of 65% for tritium. The data are analyzed for IC50 values by the LUNDON-2 program for competition (LUNDON SOFTWARE, Ohio).

For assay [1], the target named is T1, Rat Kidney Medullary V2 Receptors (Rattus norvegicus, UniProt Q00788).
T1 construct: Medullary tissues from rat kidneys are dissected out; from tissue; host or cells: rat kidney medulla membranes
T1 sequence (Q00788 whole entry): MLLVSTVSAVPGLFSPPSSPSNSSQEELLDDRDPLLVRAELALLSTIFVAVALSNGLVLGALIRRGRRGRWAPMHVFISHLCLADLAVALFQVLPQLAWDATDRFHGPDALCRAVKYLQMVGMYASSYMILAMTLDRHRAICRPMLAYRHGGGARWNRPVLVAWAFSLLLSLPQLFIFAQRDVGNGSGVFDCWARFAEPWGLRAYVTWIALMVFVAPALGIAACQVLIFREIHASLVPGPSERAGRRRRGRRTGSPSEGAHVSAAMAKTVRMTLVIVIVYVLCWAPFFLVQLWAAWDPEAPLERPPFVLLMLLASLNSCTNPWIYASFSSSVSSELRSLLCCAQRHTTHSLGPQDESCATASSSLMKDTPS
The experiment in a line: biochemical. Format: binding. Here is the method: Binding Assay to Rat Kidney Medullary V2 Receptors
Medullary tissues from rat kidneys are dissected out, cut into small pieces and soaked in a […] sodium chloride solution containing 1.0 mM EDTA with many changes of the liquid phase, until the solution is clear of blood. The tissue is homogenized in a 0.25M sucrose solution containing 1.0 mM EDTA and 0.1 mM PMSF using a Potter-Elvehjem homogenizer with a teflon pestle. The homogenate is filtered through several layers (4 layers) of cheese cloth. The filtrate is rehomogenized using a dounce homogenizer, with a tight fitting pestle. The final homogenate is centrifuged at 1500×g for 15 min. The nuclear pellet is discarded and the supernatant fluid recentrifuged at 40,000×g for 30 min. The resulting pellet formed contains a dark inner part with the exterior, slightly pink. The pink outer part is suspended in a small amount of 50.0 mM Tris.HCl buffer, pH 7.4. The protein content is determined by the Lowry's method (Lowry et al, J. Biol. Chem., 1953). The membrane suspension is stored at -70° C., in 50.0 mM Tris.HCl, containing 0.2% inactivated BSA and 0.1 mM PMSF in aliquots of 1.0 ml containing 10.0 mg protein per ml of suspension until use in subsequent binding experiments.
For binding experiments, the following is added in μl volume to wells of a 96 well format of a microtiter plate: 100.0 μl of 100.0 mM Tris.HCl buffer containing 0.2% heat inactivated BSA, 10.0 mM MgCl2 and a mixture of protease inhibitors: leupeptin, 1.0 mg %; aprotinin, 1.0 mg %; 1,10-phenanthroline, 2.0 mg %; trypsin inhibitor, 10.0 mg % and 0.1 mM PMSF, 20.0 μl of [^3 H] Arginine^8, vasopressin (S.A. 75.0 Ci/mmole) at 0.8 nM and the reaction initiated by the addition of 80.0 μl of tissue membranes (200.0 μg tissue protein). The plates are left undisturbed on the bench top for 120 min. to reach equilibrium. Non-specific binding is assessed in the presence of 1.0 μM of unlabeled ligand, added in 20 μl volume. For test compounds, these are solubilized in 50% dimethylsulfoxide (DMSO) and added in 20.0 μl volume to a final incubation volume of 200 μl. Upon completion of binding, the content of each well is filtered off, using a Brandel® cell Harvester (Gaithersburg, Md.). The radioactivity trapped on the filter disk by the ligand-receptor complex is assessed by liquid scintillation counting in a Packard LS Counter, with an efficiency of 65% for tritium. The data are analyzed for IC50 values by the LUNDON-2 program for competition (LUNDON SOFTWARE, Ohio).

Another assay has as its target T2, oxytocin receptors (Rattus norvegicus, UniProt P70536).
T2 sequence (P70536 1-388): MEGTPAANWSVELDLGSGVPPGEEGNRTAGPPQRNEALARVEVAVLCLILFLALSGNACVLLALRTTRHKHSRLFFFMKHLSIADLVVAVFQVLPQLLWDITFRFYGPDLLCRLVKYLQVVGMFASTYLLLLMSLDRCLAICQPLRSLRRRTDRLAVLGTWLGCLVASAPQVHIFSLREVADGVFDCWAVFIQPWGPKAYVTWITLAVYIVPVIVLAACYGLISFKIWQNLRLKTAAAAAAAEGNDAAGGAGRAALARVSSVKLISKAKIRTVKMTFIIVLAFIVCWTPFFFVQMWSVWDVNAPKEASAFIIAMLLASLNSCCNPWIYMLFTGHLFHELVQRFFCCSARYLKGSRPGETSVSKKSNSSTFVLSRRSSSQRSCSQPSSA
Nature of the assay: Oxytocin Receptor Binding. The following applies: for IC50: rat uterine membranes, [3H]oxytocin.

Assay [2] has as its system Endogenous Arginine Vasopressin Antidiuretic (V2) Response in Conscious Rats. Nature of the assay: Antagonism of Endogenous Arginine Vasopressin Antidiuretic (V2) Response in Conscious Rats (urine volume). The note with it: 10 mg/kg rat p.o.; 4 hour collection. Format: in vivo, rat (Sprague-Dawley). An excerpt:
Effects on the Antagonism of Endogenous Arginine Vasopressin Antidiuretic (V2) Response in Conscious Rats with Free Access to Water Drinking Before but not During the Experiment:
Male or female normotensive Sprague-Dawley rats (Charles River Laboratories, Inc., Kingston, N.Y.) of 400-450 g body weight were supplied with Laboratory Rodent Feed #5001 (PMI Feeds, Inc., Richmond, Id.) and water ad libitum. On the day of test, rats were placed individually into metabolic cages equipped with stainless steel screens (to separate the feces from the urine) and funnels for collection of urine. Vehicle or reference agent was given at various oral doses. During the test, rats were not provided with water or food. Urine was collected for four hours after dosing of the test compound. At the end of four hours, urine volume was measured. Urinary osmolality was determined using a Fiske One-Ten Osmometer (Fiske Associates, Norwood, Mass. 02062) or an Advanced CRYOMATIC Osmometer, Model 3C2 (Advanced Instruments, Norwood, Mass.). Determinations of Na^+, K^+ and Cl^- ion were carried out using ion specific electrodes in a Beckman SYNCHRON EL-ISE Electrolyte System analyzer. In the following results, increased urine volume and decreased osmolality relative to AVP-control indicates activity.

Rat Hepatic V1 Receptors, sequence (P30560 whole entry): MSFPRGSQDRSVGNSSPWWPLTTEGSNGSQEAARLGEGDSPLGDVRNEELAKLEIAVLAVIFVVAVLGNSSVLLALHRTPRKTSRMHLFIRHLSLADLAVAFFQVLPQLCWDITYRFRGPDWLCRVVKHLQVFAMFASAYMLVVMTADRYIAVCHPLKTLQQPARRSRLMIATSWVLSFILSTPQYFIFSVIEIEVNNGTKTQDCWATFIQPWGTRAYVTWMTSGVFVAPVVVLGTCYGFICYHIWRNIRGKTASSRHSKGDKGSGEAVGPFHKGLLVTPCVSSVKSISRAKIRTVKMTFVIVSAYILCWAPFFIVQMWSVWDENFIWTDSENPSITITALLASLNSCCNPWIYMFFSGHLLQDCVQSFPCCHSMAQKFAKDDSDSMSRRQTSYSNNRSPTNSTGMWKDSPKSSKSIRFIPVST

The term IC50 denotes the concentration needed to halve the response being measured. In general, inhibition refers to the relative decrease from the control value, in per cent. Low readings indicate a weak effect, high ones a strong effect. In the case of `O=C(Nc1ccc(C(=O)N2Cc3cccn3Cc3ccccc32)cc1)c1cccnc1Cl` [Example 333, N-[4-(5H-Pyrrolo[2,1-c][1,4]benzodiazepin-10(11H)-ylcarbonyl)phenyl]-2-chloropyridine-3-carboxamide], the figures for the half-maximal inhibitory concentration (IC50) (at Rat Hepatic V1 Receptors; in assay [1]; at oxytocin receptors) were 250 nM, 410 nM and 880 nM, respectively. Besides, 10 µM produced 98% inhibition on oxytocin receptors.

As for `CN1CCN(c2ncccc2C(=O)Nc2ccc(C(=O)N3Cc4cccn4Cc4ccccc43)cc2)CC1` [Example 337, N-[4-(5H-pyrrolo[2,1-c][1,4]benzodiazepin-10(11H)-ylcarbonyl)phenyl]-2-(4-methyl-1-piperazinyl)-pyridine-3-carboxamide], the IC50 at Rat Hepatic V1 Receptors stood at 1300 nM; in assay [1], 650 nM. Besides, at oxytocin receptors, 1 µM produced 16% inhibition.

In the case of `CN(C)c1ncccc1C(=O)Nc1ccc(C(=O)N2Cc3cccn3Cc3ccccc32)cc1` [Example 338, N-[4-(5H-Pyrrolo[2,1-c][1,4]benzodiazepin-10(11H)-ylcarbonyl)phenyl]-2-(dimethylamino)-pyridine-3-carboxamide], the IC50 came to 37 nM on Rat Hepatic V1 Receptors, 4.8 nM in assay [1] and 720 nM at oxytocin receptors. Moreover, the inhibition at 10 µM on oxytocin receptors amounted to 98%.

As to `O=C(Nc1ccc(C(=O)N2Cc3cccn3Cc3ccccc32)cc1)c1ccccc1-c1ccccn1` [Example 341, N-[4-(5H-Pyrrolo[2,1-c][1,4]benzodiazepin-10(11H)-ylcarbonyl)phenyl]-2-(2-pyridinyl)benzamide], the IC50 on Rat Hepatic V1 Receptors came out at 20 nM; in assay [1] it was 4 nM. On oxytocin receptors, this compound came in with an inhibition at 1 µM of 74%.

With `CC(C)(Oc1ccc(Cl)cc1)C(=O)Nc1ccc(C(=O)N2Cc3cccn3Cc3ccccc32)cc1` [Example 347, N-[4-(5H-Pyrrolo[2,1-c][1,4]benzodiazepin-10(11H)-ylcarbonyl)phenyl]-2-methyl-2-(4-chlorophenyloxy)propionamide], the IC50 at Rat Hepatic V1 Receptors was 180 nM; in assay [1], 420 nM. In addition, at oxytocin receptors, the inhibition at 10 µM worked out at 86%.

On to `CC(C)(C)Nc1ccc(C(=O)N2Cc3cccn3Cc3ccccc32)cn1` [Example 348], for which the concentration for half-maximal inhibition (IC50) on Rat Hepatic V1 Receptors amounted to 80 nM; on oxytocin receptors, 710 nM. The compound also showed an inhibition at 1 µM in assay [1] (at 1 μM) of 43%. 10 µM produced 95% inhibition on oxytocin receptors.

For the compound `O=C(c1ccc(NC2CCc3ccccc32)nc1)N1Cc2cccn2Cc2ccccc21` (stereo not drawn) [Example 350, 10-[[6-(1-Indanylamino)-3-pyridinyl)carbonyl]-10,11-dihydro-5H-pyrrolo[2,1-c][1,4]benzodiazepine], the 50% inhibitory concentration (IC50) on Rat Hepatic V1 Receptors amounted to 15 nM; in assay [1], 34 nM; on oxytocin receptors, 205 nM. Moreover, the inhibition at 10 µM on oxytocin receptors was found to be 95%.

For the compound `O=C(c1ccc(NCc2ccccc2Br)nc1)N1Cc2cccn2Cc2ccccc21` [Example 352], the results for the IC50 (on Rat Hepatic V1 Receptors; in assay [1]; at oxytocin receptors) were 88 nM, 59 nM and 105 nM, respectively. Further, the inhibition at 1.25 µM at oxytocin receptors (dose 1.25 μM) is 96%.

Regarding `O=C(Nc1ccc(C(=O)N2Cc3ccc(CN4CCC(N5CCCCC5)CC4)n3Cc3ccccc32)c(Cl)c1)c1ccccc1-c1ccccc1` [Example 373, [4-(3-[1,4]Bipiperidinyl-1'-ylmethyl-5H,11H-pyrrolo[2,1-c][1,4]benzodiazepine-10-carbonyl)-3-chloro-phenyl]-biphenyl-2-carboxylic acid amide], in assay [2], the “Urine Volume” value amounted to 15.6 ml/4 hrs.

As for `O=C(Nc1ccc(C(=O)N2Cc3ccc(CNC(CO)(CO)CO)n3Cc3ccccc32)c(Cl)c1)c1ccccc1-c1ccccc1` [Example 374, (3-Chloro-4-{3-[(2-hydroxy-1,1-bis-hydroxymethylethylamino)-methyl]-5H,11H-pyrrolo[2,1-c][1,4]benzodiazepine-10-carbonyl}-phenyl)-biphenyl-2-carboxylic acid amide], the “Urine Volume” value in assay [2] turned out to be 16.5 ml/4 hrs.

Regarding `CN(C)CCN(C)Cc1ccc2n1Cc1ccccc1N(C(=O)c1ccc(NC(=O)c3ccccc3-c3ccccc3)cc1Cl)C2` [Example 375], in assay [2], the “Urine Volume” value was 44.2 ml/4 hrs.

Take `CN(C)C1CCN(Cc2ccc3n2Cc2ccccc2N(C(=O)c2ccc(NC(=O)c4ccccc4-c4ccccc4)cc2Cl)C3)CC1` [Example 376, {3-chloro-4-[3-(4-dimethylamino-piperidine-1-ylmethyl)-5H,11H-pyrrolo[2,1-c][1,4]benzodiazepine-10-carbonyl]-phenyl}-biphenyl-2-carboxylic acid amide]: the “Urine Volume” value in assay [2] was 23.8 ml/4 hrs.
